Results reported in patent publication US7314720B2, “Method of diagnosing non-alcoholic steatohepatitis (nash) using molecular markers” (One Way Liver Genomic, S.L., priority 2002, dated 2008).

Test system: PHB1
Experiment: PHB1 level regulation in cultured rat hepatocytes (Western blot)
Type: cell-based
Conditions: for effect on PHB1 levels: 24 h incubation under standard conditions, 100 μM methionine or 4 mM AdoMet in culture media
Description: FIG. 5 illustrates PHB1 level regulation by AdoMet in cultured rat hepatocytes. PHB1 levels were measured in rat hepatocytes cultured for 12 or 24 hours in the presence or absence of 100 μM methionine, 4 mM AdoMet or 20 mM cycloleucine. Liver extracts (15 μg/lane) were analyzed by Western blotting using specific antibodies. To ensure equal loading, the membranes were stained with red Ponceau. A representative blot from three independent experiments is shown. Hepatocytes were isolated from male Wistar rats (200-250 g) by perfusion with collagenases, as previously described ([…]., et al., Gastroenterology, 1998, 114:364-371). Once isolated, hepatocytes were cultured according to García-Trevijano et al. […] Cell viability was measured by trypan blue exclusion, and no significant differences were observed between the controls and any of the different treatments performed in this study. Protein extraction and western blotting were performed as previously described ([…]., et al., Oncogene, 1995, 10:963-971; Ruiz, F., et al., Hepatology, 1998, 28:1051-1057). Briefly, equal amounts of protein (15 μg) were resolved in SDS/12.5% polyacrylamide gels. Proteins were electrophoretically transferred to nitrocellulose membranes. Membranes were probed with anti-MAT (Ruiz, F., et al., Hepatology, 1998, 28:1051-1057), anti-PHB1, anti-β ATPase and anti-COX I and II. A secondary antibody conjugated to horseradish peroxidase was used. Blots were developed by chemiluminescence (Dupont).

Compound	effect on PHB1 levels	down-regulation of PHB1 (20 mM CL added to culture medium)	decrease of PHB1 in the absence of methionine (exogenous addition of 4 mM AdoMet after 12 hours culture in the absence of methionine)
CSCC[C@H](N)C(=O)O [methionine]	no effect	–	–
NC1(C(=O)O)CCCC1 [CL, cycloleucine]	–	55%	–
C[S+](CC[C@H](N)C(=O)[O-])C[C@H]1O[C@@H](n2cnc3c(N)ncnc32)[C@H](O)[C@@H]1O (stereo partly shown) [AdoMet, S-adenosylmethionine]	no effect	–	prevented the decrease of PHB1
